What was measured:
CYP2C9 = CYP2C9 (Homo sapiens, UniProt P11712); test: CYP isoenzyme activity; type: in vitro ADME; details: 0.1 μM
CYP2C19 = CYP2C19 (Homo sapiens, UniProt P33261); test: CYP isoenzyme activity; type: in vitro ADME; details: 0.1 μM
CYP1A2 = biological target: T1, CYP1A2 (Homo sapiens, UniProt P05177); test: CYP isoenzyme activity; type: in vitro ADME; details: 0.1 μM
T1 sequence (P05177 1-516): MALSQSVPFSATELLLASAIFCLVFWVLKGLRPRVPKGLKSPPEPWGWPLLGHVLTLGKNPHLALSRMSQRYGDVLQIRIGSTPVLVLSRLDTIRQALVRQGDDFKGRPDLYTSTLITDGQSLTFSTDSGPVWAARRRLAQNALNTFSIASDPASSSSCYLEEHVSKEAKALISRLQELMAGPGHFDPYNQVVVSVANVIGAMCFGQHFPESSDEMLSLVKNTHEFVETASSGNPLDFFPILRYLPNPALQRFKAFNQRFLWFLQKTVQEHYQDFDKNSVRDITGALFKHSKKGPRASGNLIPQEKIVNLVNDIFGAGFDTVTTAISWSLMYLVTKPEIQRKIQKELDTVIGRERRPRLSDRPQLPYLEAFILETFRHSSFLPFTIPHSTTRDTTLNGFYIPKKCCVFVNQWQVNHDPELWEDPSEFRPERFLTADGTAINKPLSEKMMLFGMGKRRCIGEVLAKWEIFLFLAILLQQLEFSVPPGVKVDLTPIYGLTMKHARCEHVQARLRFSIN

CYP1A1 [1] = test: Induction of CYP1A1 mRNA expression in HepG2 (real-time PCR); type: cell-based, Human; details: HepG2, 1 μM, 24 hours, vs control (vehicle)
Experimental: In order to confirm target specificity of the compounds of an embodiment of the present invention prepared as above, it was confirmed whether the expression levels of CYP1A1 mRNA and CYP1A1 protein, which are AHR target genes, were increased.
After recovering HepG2 under culture in DMEM-fetal bovine serum (FBS) 10% medium and then confirming that the survival rate is 97% or more through trypan blue staining, the recovered product was centrifuged at a speed of 1200 rpm for 5 minutes at room temperature, and the cells were prepared by resuspending them in DMEM-fetal calf serum 10% medium at 3×10^5 cells/ml. Thereafter, the cells were dispensed onto a 60 mm dish by 3 ml, and each dish was treated with 50 μl of Compounds 6, 21, 32 and 39 at a concentration of 1 μM diluted in DMEM medium, and then cultured in a cell incubator (5% CO2 incubator) for 24 hours. As a control, 50 μl of 0.05% dimethylsulfoxide (DMSO)/DMEM medium was used for treatment.
(§1) The cultured cells were recovered to prepare an mRNA sample. […] From the separated RNA, cDNA was synthesized by reverse transcription, and the expression of CYP1A1 was confirmed through a real-time polymerase chain reaction (PCR) using iQ SYBR-Green Supermix (Bio-rad) in a CFX96 (Bio-rad) detection system. […] Herein, one (1) fold was set using the control.
(§2) The real-time polymerase chain reaction was performed under the conditions of 45 cycles at an annealing temperature of 58° C., wherein the following primer sequences were used.

CYP1A1 [2] = test: Induction of CYP1A1 protein expression in HepG2 (7-ethoxyresorufin/resorufin); type: cell-based, Human; details: HepG2, 1 μM, 24 hours, vs control (vehicle)
Experimental: After recovering HepG2 under culture in DMEM-fetal bovine serum (FBS) 10% medium and then confirming that the survival rate is 97% or more through trypan blue staining, the recovered product was centrifuged at a speed of 1200 rpm for 5 minutes at room temperature, and the cells were prepared by resuspending them in DMEM-fetal calf serum 10% medium at 1.5×10^5 cells/ml.
Thereafter, the cells were dispensed onto a 96-well plate by 200 μl, and each plate was treated with 3 μl of Compounds 6, 21, 32 and 39 at a concentration of 1 μM diluted in DMEM medium, and then cultured in a cell incubator (5% CO2 incubator) for 24 hours. As a control, 3 μl of 0.05% dimethylsulfoxide (DMSO)/DMEM medium was used for treatment.
After 24 hours, the medium of the plate was discarded, washed with dPBS, treated with 100 μl of 2 μM 7-ethoxyresorufin, and cultured in a cell incubator (5% CO2 incubator) for 30 minutes. After 30 minutes, each 75 μl of fluorescamine (150 μg/ml) was treated, then resorufine excitation was measured at 535 nm and emission at 590 nm. The standard curve was measured and used with 0 to 50 pmol of resorufin solution.
After measurement, all solutions were removed, followed by treating the same with 25 μl of 0.5 M sodium hydroxide (NaOH), the cells were scraped and reacted in a shaker at room temperature for 15 minutes.
After 15 minutes, protein was quantified using a Bradford method, and a value was obtained using a calculation formula (sample resorufin amount/sample protein amount), and then one (1) fold was set using the control.

IL-6 = IL-6 production of A549 epithelial cells by IL-1β stimulation; type: cell-based, Human; details: A549, 5 μM, 48 hours then IL-1β 24 hours, vs control
Experimental: In order to assess the inhibitory effects of production of IL-6 by the compounds of the present invention prepared as above, an IL-6 production test of epithelial cells by stimulation of IL-1β was performed.
After recovering A549 cells under culture in DMEM-fetal bovine serum (FBS) 10% medium and confirming that the survival rate is 97% or more through trypan blue staining, the recovered product was centrifuged at a speed of 1200 rpm for 5 minutes at room temperature, and the cells were prepared by resuspending them in DMEM-10% fetal bovine serum medium at 1×10^6 cells/3 ml. Thereafter, the cells were dispensed by 3 ml onto a 60 mm plate, and each dish was treated with 50 μl of Compounds 6, 9, 21, 32 and 39 at a concentration of 5 μM diluted in DMEM medium, and then cultured in a cell incubator (5% CO2 incubator) for 48 hours. Then, the cells were treated with 50 μl of human recombinant IL-1β at a concentration of 12.5 ng/ml diluted in DMEM medium, followed by culturing the same in a cell incubator (5% CO2 incubator) for 24 hours. As a control, 50 μl of 0.05% dimethylsulfoxide (DMSO)/DMEM medium was used for treatment.
as §1, §2

[3] = tested on: Foxp3-expressing regulatory T cells (Treg); test: Production of Foxp3-expressing regulatory T cells from naive CD4 T cells (flow cytometry); type: cell-based, C57BL/6 mice; details: 2.5 μM, 3 days, compared to Vehicle
Experimental: The spleen of C57BL/6 mice (8 to 12 weeks old, female) was excised, pulverized by adding RPMI medium, and then passed through a 40 μm cell strainer (BD Falcon), thereby obtaining a single cell suspension. The single cell suspension was centrifuged (1200 rpm, 5 minutes), and after discarding the supernatant, 1 ml of ACK lysis buffer was added, followed by stirring for 1 minute and then washing the same with RPMI medium. After the single cell suspension was centrifuged, T-cells were separated using a Mouse CD4 Naive T cell Enrichment Kit (Invitrogen). The separated T-cells were prepared by resuspending them in RPMI-fetal bovine serum (FBS) 10%+2-ME (mercaptoethanol) medium at 1×10^6/ml. For T-cell activation, 5 μg/ml anti-CD3 (eBioscience™) was dispensed by 100 μl onto a 96-well plate, reacted in a cell incubator (37° C., 5% CO2 incubator) for 4 hours, and washed with phosphate buffered saline to prepare the plate. The T-cells were dispensed by 200 μl onto the prepared plate, and each well was treated with 2 μg/ml of anti-CD28 (eBioscience™), 2 ng/ml of TGFβ-1 (R&D systems), and 100 U/ml of IL-2. Each 5 μl of Compounds 6 and 9 at a concentration of 2.5 μM diluted in RPMI-fetal bovine serum 10%+2-ME medium was used for treatment, followed by culturing the same in a cell incubator (37° C., 5% CO2 incubator) for 3 days. […]
In order to confirm the expression of Foxp3 protein, the recovered cells were placed in a 5 ml FACS tube (BD Falcon) and washed with 1 ml of phosphate buffered saline. […] The cells were washed twice with the Permeabilization buffer, suspended in 0.3 ml of FACS buffer, and measured by flow cytometry.
The promotion effects of Compound 6 and Comparative Example 1 on the production of “FoxP3-expressing regulatory T cells,” which play an important role in maintaining immune tolerance, were compared (FIG. 24). […] After 3 days, in order to confirm the effects of production of the regulatory T cells, the cultured cells were recovered and Foxp3 protein expression was measured in the same manner as in FIG. 4.

CYP2C19, sequence (P33261 whole entry): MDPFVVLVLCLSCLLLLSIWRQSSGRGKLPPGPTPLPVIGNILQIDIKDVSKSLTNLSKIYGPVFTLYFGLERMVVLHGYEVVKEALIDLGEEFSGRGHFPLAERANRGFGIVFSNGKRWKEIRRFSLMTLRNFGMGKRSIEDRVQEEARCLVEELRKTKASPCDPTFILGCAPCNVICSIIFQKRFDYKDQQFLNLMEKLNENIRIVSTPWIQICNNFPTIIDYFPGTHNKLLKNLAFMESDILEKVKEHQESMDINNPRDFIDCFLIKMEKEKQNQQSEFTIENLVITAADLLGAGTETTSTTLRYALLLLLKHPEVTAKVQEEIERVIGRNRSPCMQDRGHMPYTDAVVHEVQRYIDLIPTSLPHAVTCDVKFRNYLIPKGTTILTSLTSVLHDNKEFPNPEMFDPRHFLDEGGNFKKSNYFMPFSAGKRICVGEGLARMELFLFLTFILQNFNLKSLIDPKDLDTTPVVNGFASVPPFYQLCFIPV
CYP2C9, sequence (P11712 whole entry): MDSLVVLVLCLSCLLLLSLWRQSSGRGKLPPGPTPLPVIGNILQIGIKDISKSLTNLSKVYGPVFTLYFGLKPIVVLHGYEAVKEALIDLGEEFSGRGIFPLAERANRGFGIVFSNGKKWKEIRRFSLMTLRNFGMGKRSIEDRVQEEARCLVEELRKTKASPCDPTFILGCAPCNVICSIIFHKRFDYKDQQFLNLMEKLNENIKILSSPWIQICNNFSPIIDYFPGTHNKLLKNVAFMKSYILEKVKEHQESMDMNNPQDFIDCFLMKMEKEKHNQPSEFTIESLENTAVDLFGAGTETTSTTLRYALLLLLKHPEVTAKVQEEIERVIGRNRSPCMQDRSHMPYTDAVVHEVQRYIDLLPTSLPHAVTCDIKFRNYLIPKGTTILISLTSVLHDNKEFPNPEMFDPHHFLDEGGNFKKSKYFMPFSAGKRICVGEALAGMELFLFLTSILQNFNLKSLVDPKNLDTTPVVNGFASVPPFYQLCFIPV

| CYP1A1 mRNA expression level (CYP1A1 [1]) | CYP1A1 protein expression level (CYP1A1 [2]) | SMILES | CYP2C9 activity (CYP2C9) | CYP2C19 activity (CYP2C19) | CYP1A2 activity (CYP1A2) | IL-6 production of A549 by IL-1β stimulation (IL-6) | production of Foxp3-expressing regulatory T cells [3] |
| --- | --- | --- | --- | --- | --- | --- | --- |
| – | – | CC(=O)N1CCN(c2ccc(OCC3COC(Cn4ccnc4)(c4ccc(Cl)cc4Cl)O3)cc2)CC1 (centres unmarked) [Ketoconazole] | 98.6 % of Control Activity | 96.7 % of Control Activity | 95.4 % of Control Activity | – | – |
| significantly induced | significantly higher | Cn1cc(CC(=O)Nc2nc3ccc(N4CCOCC4)cc3s2)c2cc(Cl)ccc21 [Compound 21, 2-(5-chloro-1-methyl-1H-indol-3-yl)-N-(6-morpholinobenzo[d]thiazol-2-yl)acetamide] | – | – | – | significantly reduced | – |
| – | – | CN1CCN(c2ccc3nc(NC(=O)Cc4c[nH]c5ccc(Cl)cc45)sc3c2)CC1 [Compound 9, 2-(5-chloro-1H-indol-3-yl)-N-(6-(4-methylpiperazine-1-yl)benzo[d]thiazol-2-yl)acetamide] | – | – | – | significantly reduced | markedly increased |
| significantly induced | significantly higher | COc1ccc2[nH]cc(CC(=O)Nc3nc4ccc(N5CCOCC5)cc4s3)c2c1 [Compound 39, 2-(5-methoxy-1H-indol-3-yl)-N-(6-morpholinobenzo[d]thiazol-2-yl)acetamide] | – | – | – | significantly reduced | – |
| significantly induced | significantly higher | O=C(Cc1c[nH]c2ccc(O)cc12)Nc1nc2ccc(N3CCOCC3)cc2s1 [Compound 32, 2-(5-hydroxy-1H-indol-3-yl)-N-(6-morpholinobenzo[d]thiazol-2-yl)acetamide] | – | – | – | significantly reduced | – |

From patent US12187717B2, “Compound and use thereof in treating autoimmune diseases” (PARENCHYMA BIOTECH INC., priority 2022, dated 2025)
